# Experimental data as given in patent US8952024B2, “Herbicidal pyrimidone derivatives” (E I du Pont de Nemours and Company, priority 2009, dated 2015).
# Assays:
# Type in all cases: in vivo
# [1] = test system: ragweed (common ragweed, Ambrosia elatior); assay: Test B pre-/postemergence plant response
# Description: (§1) Seeds of plant species selected from blackgrass (Alopecurus myosuroides), downy bromegrass (Bromus tectorum), green foxtail (Setaria viridis), Italian ryegrass (Lolium multiflorum), wheat (Triticum aestivum), wild oat (Avena fatua), deadnettle (henbit deadnettle, Lamium amplexicaule), galium (catchweed bedstraw, Galium aparine), bermudagrass (Cynodon dactylon), Surinam grass (Brachiaria decumbens), cocklebur (Xanthium strumarium), corn (Zea mays), large crabgrass (Digitaria sanguinalis), woolly cupgrass (Eriochloa villosa), giant foxtail (Setaria faberii), goosegrass (Eleusine indica), johnsongrass (Sorghum halepense), kochia (Kochia scoparia), lambsquarters (Chenopodium album), morningglory (Ipomoea coccinea), nightshade (eastern black nightshade, Solanum ptycanthum), yellow nutsedge (Cyperus esculentus), pigweed (Amaranthus retroflexus), ragweed (common ragweed, Ambrosia elatior), Russian thistle (Salsola kali), soybean (Glycine max), sunflower (common oilseed sunflower, Helianthus annuus) and velvetleaf (Abutilon theophrasti) were planted into a blend of loam soil and sand and treated preemergence with test compounds formulated in a non-phytotoxic solvent mixture which included a surfactant.
# (§2) At the same time, plants selected from these crop and weed species and also winter barley (Hordeum vulgare), canarygrass (Phalaris minor), chickweed (Stellaria media) and windgrass (Apera spica-venti) were planted in pots containing Redi-Earth® planting medium (Scotts Company, 14111 Scottslawn Road, Marysville, Ohio 43041) comprising spaghnum peat moss, vermiculite, wetting agent and starter nutrients and treated with postemergence applications of some of the test chemicals formulated in the same manner. Plants ranged in height from 2 to 18 cm (1- to 4-leaf stage) for postemergence treatments.
# (§3) Treated plants and controls were maintained in a greenhouse for 13 to 15 days, after which time all treated plants were visually evaluated and compared to controls. Plant response ratings, summarized in Table B, are based on a scale of 0 to 100 where 0 is no effect and 100 is complete control. A dash (-) response means no test result.
# [2] = test system: Italian ryegrass (Lolium multiflorum); assay: Test B pre-/postemergence plant response
# Description: as §1, §2, §3
# [3] = test system: blackgrass (Alopecurus myosuroides); assay: Test B pre-/postemergence plant response
# Description: as §1, §2, §3
# [4] = test system: johnsongrass (Sorghum halepense); assay: Test B pre-/postemergence plant response
# Description: as §1, §2, §3
# [5] = test system: goosegrass (Eleusine indica); assay: Test B pre-/postemergence plant response
# Description: as §1, §2, §3
# [6] = test system: green foxtail (Setaria viridis); assay: Test B pre-/postemergence plant response
# Description: as §1, §2, §3
# [7] = test system: velvetleaf (Abutilon theophrasti); assay: Test B pre-/postemergence plant response
# Description: as §1, §2, §3
# [8] = test system: pigweed (Amaranthus retroflexus); assay: Test B pre-/postemergence plant response
# Description: as §1, §2, §3
# [9] = test system: bermudagrass (Cynodon dactylon); assay: Test B pre-/postemergence plant response
# Description: as §1, §2, §3
# [10] = test system: morningglory (Ipomoea coccinea); assay: Test B pre-/postemergence plant response
# Description: as §1, §2, §3
# soybean (Glycine max) = assay: Test B pre-/postemergence plant response
# Description: as §1, §2, §3
# corn (Zea mays) = assay: Test B pre-/postemergence plant response
# Description: as §1, §2, §3
# [11] = test system: giant foxtail (Setaria faberii); assay: Test B pre-/postemergence plant response
# Description: as §1, §2, §3
# [12] = test system: downy bromegrass (Bromus tectorum); assay: Test B pre-/postemergence plant response
# Description: as §1, §2, §3
# [13] = test system: wheat (Triticum aestivum); assay: Test B pre-/postemergence plant response
# Description: as §1, §2, §3
# [14] = test system: chickweed (Stellaria media); assay: Test B postemergence plant response; conditions: Postemergence
# In short: (§4)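 Plants at the 1- to 4-leaf stage (2 to 18 cm tall), grown in pots of peat moss/vermiculite medium with wetting agent and starter nutrients, received postemergence applications of test chemicals. After 13 to 15 days in a greenhouse, injury was rated visually against untreated controls on a 0 (no effect) to 100 (complete control) scale.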
# [15] = test system: winter barley (Hordeum vulgare); assay: Test B postemergence plant response; conditions: Postemergence
# In short: as §4
# [16] = test system: canarygrass (Phalaris minor); assay: Test B postemergence plant response; conditions: Postemergence
# In short: as §4
# [17] = 250 g ai/ha, Preemergence, 0 to 100 scale
# [18] = Postemergence, 31 g ai/ha, scale 0 to 100 (0 no effect, 100 complete control)
# [19] = Postemergence, 62 g ai/ha, scale 0 (no effect) to 100 (complete control), 13 to 15 days
# [20] = Postemergence, 125 g ai/ha, visual rating after 13 to 15 days, scale 0 (no effect) to 100 (complete control)
# [21] = Postemergence, 250 g ai/ha, scale 0 to 100
# [22] = Preemergence, 31 g ai/ha, scale 0 to 100 (0 no effect, 100 complete control)
# [23] = Preemergence, 62 g ai/ha, scale 0 to 100, 0 no effect, 100 complete control
# [24] = Preemergence, 125 g ai/ha, 0 to 100 scale
# [25] = 31 g ai/ha, scale 0 to 100 (0 no effect, 100 complete control)
# [26] = 62 g ai/ha, scale 0 (no effect) to 100 (complete control), 13 to 15 days
# [27] = 125 g ai/ha, visual rating after 13 to 15 days, scale 0 (no effect) to 100 (complete control)
substance,measurement,setting,value
5-[(2-hydroxy-6-oxo-1-cyclohexen-1-yl)carbonyl]-3-phenyl-2-(3-pyridinyl)-4(3H)-pyrimidone [Compound 113],"Plant response rating, Ragweed",[1]; [17],90
same,"Plant response rating, Ragweed",[1]; [18],50
same,"Plant response rating, Ragweed",[1]; [19],65
same,"Plant response rating, Ragweed",[1]; [20],80
same,Ragweed plant response rating,[1]; [21],85
same,"Plant response rating, Ragweed",[1]; [22],0
same,"Plant response rating, Ragweed",[1]; [23],0
same,Ragweed plant response rating,[1]; [24],15
same,"Plant response rating, Ryegrass, Italian",[2]; [17],0
same,"Plant response rating, Ryegrass, Italian",[2]; [18],0
same,"Plant response rating, Ryegrass, Italian",[2]; [19],0
same,"Plant response rating, Ryegrass, Italian",[2]; [20],0
same,"Ryegrass, Italian plant response rating",[2]; [21],20
same,"Plant response rating, Ryegrass, Italian",[2]; [22],0
same,"Plant response rating, Ryegrass, Italian",[2]; [23],0
same,"Ryegrass, Italian plant response rating",[2]; [24],0
same,"Plant response rating, Blackgrass",[3]; [17],0
same,"Plant response rating, Blackgrass",[3]; [18],0
same,"Plant response rating, Blackgrass",[3]; [19],0
same,"Plant response rating, Blackgrass",[3]; [20],0
same,Blackgrass plant response rating,[3]; [21],5
same,"Plant response rating, Blackgrass",[3]; [22],0
same,"Plant response rating, Blackgrass",[3]; [23],0
same,Blackgrass plant response rating,[3]; [24],0
same,"Plant response rating, Johnsongrass",[4]; [17],0
same,"Plant response rating, Johnsongrass",[4]; [18],0
same,"Plant response rating, Johnsongrass",[4]; [19],0
same,"Plant response rating, Johnsongrass",[4]; [20],0
same,Johnsongrass plant response rating,[4]; [21],0
same,"Plant response rating, Johnsongrass",[4]; [22],0
same,"Plant response rating, Johnsongrass",[4]; [23],0
same,Johnsongrass plant response rating,[4]; [24],0
same,"Plant response rating, Goosegrass",[5]; [17],60
same,"Plant response rating, Goosegrass",[5]; [18],20
same,"Plant response rating, Goosegrass",[5]; [19],25
same,"Plant response rating, Goosegrass",[5]; [20],35
same,Goosegrass plant response rating,[5]; [21],35
same,"Plant response rating, Goosegrass",[5]; [22],10
same,Goosegrass plant response rating,[5]; [24],45
same,"Plant response rating, Foxtail, Green",[6]; [17],0
same,"Plant response rating, Foxtail, Green",[6]; [18],5
same,"Plant response rating, Foxtail, Green",[6]; [19],20
same,"Plant response rating, Foxtail, Green",[6]; [20],30
same,"Foxtail, Green plant response rating",[6]; [21],40
same,"Plant response rating, Foxtail, Green",[6]; [22],0
same,"Plant response rating, Foxtail, Green",[6]; [23],0
same,"Foxtail, Green plant response rating",[6]; [24],0
same,"Plant response rating, Velvetleaf",[7]; [17],100
same,"Plant response rating, Velvetleaf",[7]; [18],70
same,"Plant response rating, Velvetleaf",[7]; [19],80
same,"Plant response rating, Velvetleaf",[7]; [20],90
same,Velvetleaf plant response rating,[7]; [21],98
same,"Plant response rating, Velvetleaf",[7]; [22],40
same,"Plant response rating, Velvetleaf",[7]; [23],85
same,Velvetleaf plant response rating,[7]; [24],100
same,"Plant response rating, Pigweed",[8]; [17],100
same,"Plant response rating, Pigweed",[8]; [18],75
same,"Plant response rating, Pigweed",[8]; [19],75
same,"Plant response rating, Pigweed",[8]; [20],90
same,Pigweed plant response rating,[8]; [21],98
same,"Plant response rating, Pigweed",[8]; [22],100
same,"Plant response rating, Pigweed",[8]; [23],100
same,Pigweed plant response rating,[8]; [24],100
same,"Plant response rating, Bermudagrass",[9]; [17],98
same,"Plant response rating, Bermudagrass",[9]; [18],35
same,"Plant response rating, Bermudagrass",[9]; [19],45
same,"Plant response rating, Bermudagrass","[9]; Postemergence, 125 g ai/ha, scale 0 to 100 (0 no effect, 100 complete control), 13 to 15 days",65
same,Bermudagrass plant response rating,[9]; [21],70
same,"Plant response rating, Bermudagrass",[9]; [22],0
same,"Plant response rating, Bermudagrass",[9]; [23],0
same,Bermudagrass plant response rating,[9]; [24],85
same,"Plant response rating, Morningglory",[10]; [17],20
same,"Plant response rating, Morningglory",[10]; [18],15
same,"Plant response rating, Morningglory",[10]; [19],15
same,"Plant response rating, Morningglory",[10]; [20],15
same,Morningglory plant response rating,[10]; [21],20
same,"Plant response rating, Morningglory",[10]; [23],0
same,Morningglory plant response rating,[10]; [24],0
same,"Plant response rating, Soybean",soybean (Glycine max); [17],30
same,"Plant response rating, Soybean",soybean (Glycine max); [18],60
same,"Plant response rating, Soybean",soybean (Glycine max); [19],65
same,"Plant response rating, Soybean",soybean (Glycine max); [20],75
same,Soybean plant response rating,soybean (Glycine max); [21],85
same,"Plant response rating, Soybean",soybean (Glycine max); [22],0
same,"Plant response rating, Soybean",soybean (Glycine max); [23],0
same,Soybean plant response rating,soybean (Glycine max); [24],20
same,"Plant response rating, Corn",corn (Zea mays); [17],0
same,"Plant response rating, Corn",corn (Zea mays); [18],0
same,"Plant response rating, Corn",corn (Zea mays); [19],0
same,"Plant response rating, Corn",corn (Zea mays); [20],0
same,Corn plant response rating,corn (Zea mays); [21],10
same,"Plant response rating, Corn",corn (Zea mays); [22],0
same,"Plant response rating, Corn",corn (Zea mays); [23],0
same,Corn plant response rating,corn (Zea mays); [24],0
same,"Plant response rating, Foxtail, Giant",[11]; [17],25
same,"Plant response rating, Foxtail, Giant",[11]; [18],20
same,"Plant response rating, Foxtail, Giant",[11]; [19],55
same,"Plant response rating, Foxtail, Giant",[11]; [20],55
same,"Foxtail, Giant plant response rating",[11]; [21],60
same,"Plant response rating, Foxtail, Giant",[11]; [22],0
same,"Plant response rating, Foxtail, Giant",[11]; [23],0
same,"Foxtail, Giant plant response rating",[11]; [24],0
same,"Plant response rating, Bromegrass, Downy",[12]; [17],0
same,"Plant response rating, Bromegrass, Downy",[12]; [18],0
same,"Plant response rating, Bromegrass, Downy",[12]; [19],0
same,"Plant response rating, Bromegrass, Downy",[12]; [20],5
same,"Bromegrass, Downy plant response rating",[12]; [21],5
same,"Plant response rating, Bromegrass, Downy",[12]; [22],0
same,"Plant response rating, Bromegrass, Downy",[12]; [23],0
same,"Bromegrass, Downy plant response rating",[12]; [24],0
same,"Plant response rating, Wheat",[13]; [17],0
same,"Plant response rating, Wheat",[13]; [18],0
same,"Plant response rating, Wheat",[13]; [19],0
same,"Plant response rating, Wheat",[13]; [20],10
same,Wheat plant response rating,[13]; [21],15
same,"Plant response rating, Wheat",[13]; [22],0
same,"Plant response rating, Wheat",[13]; [23],0
same,Wheat plant response rating,[13]; [24],0
same,"Plant response rating, Chickweed",[14]; [25],60
same,"Plant response rating, Chickweed",[14]; [26],80
same,"Plant response rating, Chickweed",[14]; [27],90
same,Chickweed plant response rating,"[14]; 250 g ai/ha, scale 0 to 100",100
same,"Plant response rating, Barley",[15]; [25],0
same,"Plant response rating, Barley",[15]; [26],0
same,"Plant response rating, Barley","[15]; 125 g ai/ha, scale 0 to 100 (0 no effect, 100 complete control), 13 to 15 days",0
same,Barley plant response rating,"[15]; 250 g ai/ha, scale 0 to 100",0
same,"Plant response rating, Canarygrass",[16]; [25],0
same,"Plant response rating, Canarygrass",[16]; [26],0
same,"Plant response rating, Canarygrass",[16]; [27],0
same,Canarygrass plant response rating,"[16]; 250 g ai/ha, scale 0 to 100",0
